From article PMC10482691, “LTP induction by structural rather than enzymatic functions of CaMKII” (Nature, 2023)
“And” between values parts separate entries of the source, which are not always exact repeats. Identical values can stand only once.

Key:
[1] = biological target: JNK2α2(h) (Homo sapiens, UniProt P45984); assay: Kinase selectivity panel (residual activity at 1 μM); assay type: biochemical; settings: inhibitor at 1 μM
[2] = biological target: KDR(h) (Homo sapiens, UniProt P35968); assay: as above; assay type: biochemical; settings: inhibitor at 1 μM; read-out: residual kinase activity in % of maximal activity
KDR(h), sequence (P35968 20-1356): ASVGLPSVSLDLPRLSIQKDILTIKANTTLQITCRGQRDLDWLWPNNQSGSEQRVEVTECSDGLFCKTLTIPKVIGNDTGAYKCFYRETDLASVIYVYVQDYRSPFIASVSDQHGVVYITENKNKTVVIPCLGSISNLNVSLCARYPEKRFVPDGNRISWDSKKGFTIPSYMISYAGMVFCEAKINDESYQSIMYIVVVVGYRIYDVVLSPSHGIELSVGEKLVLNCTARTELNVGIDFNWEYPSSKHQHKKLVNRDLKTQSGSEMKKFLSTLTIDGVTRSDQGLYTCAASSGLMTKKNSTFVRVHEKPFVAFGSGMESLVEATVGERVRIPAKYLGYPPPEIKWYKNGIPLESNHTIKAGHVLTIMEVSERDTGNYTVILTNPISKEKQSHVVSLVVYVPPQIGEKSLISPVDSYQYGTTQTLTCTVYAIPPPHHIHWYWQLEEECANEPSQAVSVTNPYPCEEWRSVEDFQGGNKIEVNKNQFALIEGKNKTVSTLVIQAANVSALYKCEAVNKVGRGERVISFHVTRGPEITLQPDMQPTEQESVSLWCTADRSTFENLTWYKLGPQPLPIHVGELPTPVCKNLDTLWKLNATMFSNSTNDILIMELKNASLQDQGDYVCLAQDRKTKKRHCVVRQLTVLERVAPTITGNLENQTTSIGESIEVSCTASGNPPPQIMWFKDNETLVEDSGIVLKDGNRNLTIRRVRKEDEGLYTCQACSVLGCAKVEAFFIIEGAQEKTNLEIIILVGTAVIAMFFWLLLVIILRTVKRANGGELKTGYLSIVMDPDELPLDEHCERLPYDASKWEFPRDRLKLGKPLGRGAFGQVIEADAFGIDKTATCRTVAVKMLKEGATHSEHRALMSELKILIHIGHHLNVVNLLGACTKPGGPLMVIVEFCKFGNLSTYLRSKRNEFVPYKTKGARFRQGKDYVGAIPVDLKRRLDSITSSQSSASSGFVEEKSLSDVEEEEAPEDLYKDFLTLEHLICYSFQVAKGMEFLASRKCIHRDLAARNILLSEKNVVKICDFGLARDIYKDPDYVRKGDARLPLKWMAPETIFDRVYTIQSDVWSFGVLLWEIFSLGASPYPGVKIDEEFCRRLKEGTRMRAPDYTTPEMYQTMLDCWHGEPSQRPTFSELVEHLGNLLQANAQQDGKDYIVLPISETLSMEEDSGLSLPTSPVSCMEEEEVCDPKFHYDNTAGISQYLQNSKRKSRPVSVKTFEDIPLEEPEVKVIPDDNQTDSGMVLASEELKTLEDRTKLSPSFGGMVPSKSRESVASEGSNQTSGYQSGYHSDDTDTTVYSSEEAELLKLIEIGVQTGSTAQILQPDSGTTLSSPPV

[3] = biological target: MAPK1(h) (Homo sapiens, UniProt P27361); assay: as above; assay type: biochemical; settings: inhibitor at 1 μM; read-out: residual kinase activity in % of maximal activity
MAPK1(h), sequence (P27361 whole entry): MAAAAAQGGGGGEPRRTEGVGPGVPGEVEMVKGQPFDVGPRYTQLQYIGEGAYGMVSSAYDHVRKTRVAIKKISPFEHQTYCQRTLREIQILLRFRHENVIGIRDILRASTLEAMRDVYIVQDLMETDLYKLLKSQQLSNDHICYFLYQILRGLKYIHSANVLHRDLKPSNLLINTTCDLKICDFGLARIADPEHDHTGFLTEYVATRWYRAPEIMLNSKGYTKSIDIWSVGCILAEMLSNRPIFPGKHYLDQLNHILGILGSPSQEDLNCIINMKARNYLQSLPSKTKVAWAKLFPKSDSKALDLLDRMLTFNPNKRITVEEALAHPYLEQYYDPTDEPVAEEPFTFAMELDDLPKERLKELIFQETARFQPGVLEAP

[4] = biological target: MAPK2(h) (Homo sapiens, UniProt P28482); assay: as above; assay type: biochemical; settings: inhibitor at 1 μM; read-out: residual kinase activity in % of maximal activity
MAPK2(h), sequence (P28482 whole entry): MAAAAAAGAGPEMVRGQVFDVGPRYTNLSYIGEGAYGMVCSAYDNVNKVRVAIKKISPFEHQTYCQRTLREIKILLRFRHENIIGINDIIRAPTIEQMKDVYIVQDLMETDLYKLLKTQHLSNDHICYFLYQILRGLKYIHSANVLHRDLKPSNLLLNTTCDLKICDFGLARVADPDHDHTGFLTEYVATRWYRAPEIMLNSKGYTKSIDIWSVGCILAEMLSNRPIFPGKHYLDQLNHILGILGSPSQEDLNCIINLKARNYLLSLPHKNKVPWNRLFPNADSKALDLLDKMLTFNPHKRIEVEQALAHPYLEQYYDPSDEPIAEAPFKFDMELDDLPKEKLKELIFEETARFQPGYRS

[5] = biological target: PKBγ(h) (Homo sapiens, UniProt Q9Y243); assay: as above; assay type: biochemical; settings: inhibitor at 1 μM; read-out: residual kinase activity in % of maximal activity
PKBγ(h), sequence (Q9Y243 whole entry): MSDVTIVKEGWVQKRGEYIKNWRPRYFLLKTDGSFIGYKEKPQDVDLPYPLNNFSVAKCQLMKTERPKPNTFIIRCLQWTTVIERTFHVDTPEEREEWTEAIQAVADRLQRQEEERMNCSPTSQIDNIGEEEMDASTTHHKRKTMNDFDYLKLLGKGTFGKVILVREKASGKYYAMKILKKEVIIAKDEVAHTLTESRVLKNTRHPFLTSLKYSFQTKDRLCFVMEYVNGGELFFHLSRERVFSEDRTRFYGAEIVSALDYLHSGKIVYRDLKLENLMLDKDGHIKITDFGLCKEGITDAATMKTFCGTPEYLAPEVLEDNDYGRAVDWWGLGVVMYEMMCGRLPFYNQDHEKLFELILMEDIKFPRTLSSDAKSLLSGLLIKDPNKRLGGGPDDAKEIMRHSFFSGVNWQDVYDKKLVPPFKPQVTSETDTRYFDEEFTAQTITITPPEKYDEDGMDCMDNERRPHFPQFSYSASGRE

[6] = biological target: purified CaMKIIα (Rattus norvegicus, UniProt P11275); assay: In vitro kinase reaction: CaMKIIα autophosphorylation of T286; assay type: biochemical; settings: 30 °C, 1 mM ATP, Ki from IC50 with Km ATP 33.3 μM, read-out: apparent inhibitor constant (Ki), pT286
Experimental: Data are presented as mean values ± s.e.m. a, Schematic of the AS283 inhibitor mechanism of action: ATP-competitive inhibition blocks enzymatic activity while mimicking the nucleotide binding requirement to allow interaction with GluN2B. b, Representative immunoblot and quantification of in vitro kinase reactions at 30 °C in 1 mM ATP measuring purified CaMKIIα phosphorylation of GST–GluA1 S831 with varying concentrations of AS283 (0.41–10 μM; n = 4 independent concentration curves). For a negative control (Neg.), ATP was omitted. […] ADP:AS283 P = 0.0697; ADP:tatCN21 P < 0.0001. ***P < 0.001. d, Confocal microscopy images of HEK293 cells co-expressing GFP–CaMKII and mCherry-2BC. […] CaMKII synaptic enrichment was measured before and after cLTP (n = 14,9 cells; RM two-way ANOVA with Šídák’s multiple comparisons test). […]
CaMKII-mediated phosphorylation of GluA1 S831 or GluN2B S1303 was measured by in vitro kinase reaction with a purified GST–GluA1 C-terminal tail or GST-GluN2B C-terminal tail. […] GST, phospho-S831, CaMKII, phospho-T286 or phospho-S1303 were detected in the samples by immunoblot analysis.
The inhibition constant Ki was calculated using the Cheng–Prusoff equation for competitive inhibition: Ki = IC50/(1 + [ATP]/Km).

[7] = biological target: T1, CaMKII-F89G binding to GST-GluN2B-c (Homo sapiens, UniProt Q9UQM7, F89G); assay: CaMKII-F89G binding to immobilized GST-GluN2B-c in vitro
T1 construct: made in house; host or cells: HEK293 overexpression (CaMKII mutant); BL21 bacteria (CaM, GST-GluN2Bc)
T1 sequence (Q9UQM7 whole entry F89G): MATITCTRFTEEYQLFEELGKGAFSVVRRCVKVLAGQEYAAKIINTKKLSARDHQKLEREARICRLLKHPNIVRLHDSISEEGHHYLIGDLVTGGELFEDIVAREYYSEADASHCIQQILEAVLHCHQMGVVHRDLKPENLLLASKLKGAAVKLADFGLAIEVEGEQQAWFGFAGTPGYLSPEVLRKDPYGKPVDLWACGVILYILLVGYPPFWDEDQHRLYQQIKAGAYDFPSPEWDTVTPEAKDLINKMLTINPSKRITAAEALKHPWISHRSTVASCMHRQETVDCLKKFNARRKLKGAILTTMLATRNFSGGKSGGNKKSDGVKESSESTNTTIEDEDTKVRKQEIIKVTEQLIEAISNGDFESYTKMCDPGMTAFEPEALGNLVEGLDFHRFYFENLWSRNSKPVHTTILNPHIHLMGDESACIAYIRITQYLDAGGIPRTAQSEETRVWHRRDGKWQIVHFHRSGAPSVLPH
T1 sequence (Q13224 836-1484, further chain): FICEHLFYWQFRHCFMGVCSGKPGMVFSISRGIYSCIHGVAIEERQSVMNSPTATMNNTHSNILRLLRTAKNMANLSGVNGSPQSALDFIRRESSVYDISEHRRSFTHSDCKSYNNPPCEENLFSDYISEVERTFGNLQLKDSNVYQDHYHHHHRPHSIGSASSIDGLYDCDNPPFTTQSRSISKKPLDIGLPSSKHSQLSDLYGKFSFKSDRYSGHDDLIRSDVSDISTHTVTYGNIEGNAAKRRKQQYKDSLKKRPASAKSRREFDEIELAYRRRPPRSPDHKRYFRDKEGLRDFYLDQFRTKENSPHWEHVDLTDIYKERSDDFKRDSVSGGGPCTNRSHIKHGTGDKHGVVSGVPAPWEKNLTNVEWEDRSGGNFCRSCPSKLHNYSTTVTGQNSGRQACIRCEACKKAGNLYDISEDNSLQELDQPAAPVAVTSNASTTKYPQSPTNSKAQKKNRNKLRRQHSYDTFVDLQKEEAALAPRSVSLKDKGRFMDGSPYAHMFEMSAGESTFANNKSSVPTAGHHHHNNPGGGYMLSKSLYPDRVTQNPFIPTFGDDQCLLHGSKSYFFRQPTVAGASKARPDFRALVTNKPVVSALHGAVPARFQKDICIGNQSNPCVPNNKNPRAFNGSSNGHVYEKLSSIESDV
Experimental: CaMKII–GluN2B binding assays were done as described[9],[13],[25]. Briefly, GST–GluN2B-c tail (GST–2BC) was immobilized on anti-GST antibody-coated microtiter plates (Thermo Scientific), blocked for 30 min with 5% BSA and then overlaid with […] CaMKII (subunit concentration) in PIPES-buffered saline (pH 7.2) containing 2 mM Ca^2+, 1 μM CaM, 1 mM Mg^2+, 0.1% BSA and 0.1% Tween-20 for 20 min at room temperature. The addition of 1 mM ADP, 1 mM ATP, 10 μM AS283 (or AS105) or 10 μM NM-PP1 was added accordingly (Figs. 1–6). After extensive washes in buffer containing 1 mM EGTA, GST–2BC and bound CaMKII were eluted for 10 min in SDS loading buffer at 95 °C. Bound CaMKII was measured via immunoblot.
Extended Data Fig. 4 CaMKII WT and K42M are unaffected by NM-PP1 in HEK cells. Data are presented as mean values +/− SEM. a, Representative immunoblot and quantification of in vitro kinase reactions at 30 °C in 1 mM ATP measuring CaMKIIα WT and F89G phosphorylation of T286 (n = 4 independent samples, **p < 0.01, ***p < 0.001; two-way ANOVA with Šídák’s multiple comparisons test). WT) –:ATP p = 0.0012; –:ATP+NM-PP1 p = 0.0002; ATP:ATP+NM-PP1 p = 0.7989. […] Scale bar indicates 10 μm. n = 22, 17 cells; see Fig. 4c for quantification. c, Binding of CaMKII-F89G to immobilized GST-GluN2B-c was induced by Ca^2+/CaM in the presence of either 1 mM ADP or 10 μM NM-PP1. […]

JNK2α2(h), sequence (P45984 whole entry): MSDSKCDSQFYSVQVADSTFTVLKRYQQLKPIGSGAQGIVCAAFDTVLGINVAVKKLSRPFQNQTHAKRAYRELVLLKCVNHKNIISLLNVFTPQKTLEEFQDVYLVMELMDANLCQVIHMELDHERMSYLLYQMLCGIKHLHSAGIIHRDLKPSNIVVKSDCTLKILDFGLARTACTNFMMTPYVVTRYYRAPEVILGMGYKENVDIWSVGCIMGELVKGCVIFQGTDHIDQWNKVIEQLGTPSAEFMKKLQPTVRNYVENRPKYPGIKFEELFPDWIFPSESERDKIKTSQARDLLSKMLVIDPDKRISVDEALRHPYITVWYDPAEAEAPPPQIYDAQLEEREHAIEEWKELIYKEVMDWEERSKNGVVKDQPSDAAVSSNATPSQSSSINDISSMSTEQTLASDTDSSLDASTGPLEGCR

Row | SMILES | residual kinase activity in % of maximal activity [1] [%] | remaining activity at 1 µM [2] [%] | remaining activity at 1 µM [3] [%] | remaining activity at 1 µM [4] [%] | remaining activity at 1 µM [5] [%] | Ki [6] [nM] | bound CaMKII-F89G (immunoblot, relative) ([7]; Ca2+/CaM, 10 μM NM-PP1) | effect on binding of CaMKII F89G to GluN2B in vitro ([7]; NM-PP1)
1 | NCCNc1cccc(-c2ccnc3[nH]c4ccccc4c23)c1 [AS283] | 82 | 15 | 102 | 97 | 42 | 71 | – | –
2 | CC(C)(C)n1nc(Cc2cccc3ccccc23)c2c(N)ncnc21 [NM-PP1] | – | – | – | – | – | – | 3.501 and 3.151 and 3.552 and 3.537 | enabled binding
